Test results from patent US20240245617A1, “LIPID-BASED TOPICAL INJECTION FORMULATIONS” (Beijing Jitai Pharmaceutical Technology Co., Ltd., priority 2022, published 2024).

tested on: C57BL/6 mice; experiment: In vivo bioluminescence after intravenous administration of lipid nanoparticles encapsulating luciferase mRNA; settings: 0.5 mg/kg mRNA, liver
Procedure: The delivery effect and safety of nanoparticles encapsulating luciferase mRNA (Trilink, L-7202) in mice were evaluated. The test mice were SPF-grade C57BL/6 mice, female, 6-8 weeks old, weighing 18-22 g, and were purchased from SPF (Beijing) Biotechnology Co., Ltd. All animals were acclimatized for more than 7 days prior to the experiment, and had free access to food and water during the experiment. The conditions include alternating light and dark for 12/12 h, the indoor temperature of 20-26° C. and the humidity of 40-70%. The mice were randomly grouped. The lipid nanoparticles encapsulating luciferase mRNA prepared above were injected into mice by intravenous administration at a single dose of 0.5 mg/kg mRNA, and the mice were subjected to in vivo bioluminescence assay using a Small Animal In Vivo Imaging System (IVIS LUMINA III, purchased from PerkinElmer) at 6 h after administration. The assay was performed as follows: D-luciferin solution was prepared in saline at a concentration of 15 mg/mL, and each mouse was given the substrate by intraperitoneal injection. At ten minutes after administration of the substrate, the mice were anesthetized in an anesthesia chamber with isoflurane at a concentration of 2.5%. […] Data acquisition and analysis were performed on the liver.
The in vivo delivery efficiency of lipid nanoparticle carriers was expressed as the mean values of fluorescence intensity and total photon count in different animals within the same subject group, as shown in Table 4. Higher values of fluorescence intensity and total photon count indicate higher in vivo delivery efficiency of this mRNA fragment by lipid nanoparticles. The lipid nanoparticles containing the cationic lipids of the present disclosure have good in vivo delivery efficiency and mainly target the liver.

Compared with `CCCCCCCCOC(=O)C(C)(C)CCCCCC(CCCCCC(C)(C)C(=O)OCCCCCCCC)OC(=O)CCN(C)C` [Compound 2], `CCCCCCCCCOC(=O)C(C)(C)CCCCCC(CCCCCC(C)(C)C(=O)OCCCCCCCCC)OC(=O)CCN(C)C` [Compound 3] is higher in “Total photon count in vivo at 6 hours after administration (Total Flux)” value (“Total photon count in vivo at 6 hours” for short): 4.23E+08 for the first, 1.75E+09 for the second.

Going from `CC(C)CCCC(C)CCOC(=O)C(C)(C)CCCCCC(CCCCCC(C)(C)C(=O)OCCC(C)CCCC(C)C)OC(=O)CCN(C)C` (centres unmarked) [Compound 6] to `CC/C=C\CCCCCOC(=O)C(C)(C)CCCCCC(CCCCCC(C)(C)C(=O)OCCCCC/C=C\CC)OC(=O)CCN(C)C` [Compound 7], the “Total photon count in vivo at 6 hours” value falls from 2.25E+09 to 1.16E+08.

Going from `CCCCCCCCCCNC(=O)C(C)(C)CCCCCC(CCCCCC(C)(C)C(=O)NCCCCCCCCCC)OC(=O)CCN(C)C` [Compound 8] to `CCCCCCCCCNC(=O)C(C)(C)CCCCCC(CCCCCC(C)(C)C(=O)NCCCCCCCCC)OC(=O)CCN(C)C` [Compound 9], the “Total photon count in vivo at 6 hours” value falls from 3.26E+07 to 6.05E+06.

Compared with `CCCCCCCCCCCCNC(=O)C(C)(C)CCCCCC(CCCCCC(C)(C)C(=O)NCCCCCCCCCCCC)OC(=O)CCN(C)C` [Compound 10], `CCCCCCCCCCSC(=O)C(C)(C)CCCCCC(CCCCCC(C)(C)C(=O)SCCCCCCCCCC)OC(=O)CCCCCN(C)C` [Compound 36] is higher in “Total photon count in vivo at 6 hours” value: 1.26E+09 for the first, 4.84E+09 for the second.

First: CCCCCCCCC(CCCCCCCC)NC(=O)C(C)(C)CCCCCC(CCCCCC(C)(C)C(=O)NC(CCCCCCCC)CCCCCCCC)OC(=O)CCN(C)C [Compound 11]
Second: CCCCCCCCCN(CCCCCCCCC)C(=O)C(C)(C)CCCCCC(CCCCCC(C)(C)C(=O)N(CCCCCCCCC)CCCCCCCCC)OC(=O)CCN(C)C [Compound 12]
The “Total photon count in vivo at 6 hours” value of the first is lower: 4.42E+06 for the first, 1.10E+09 for the second.

Going from `CCCCCCCCCCOC(=O)C(C)(C)CCCCCC(CCCCCC(C)(C)C(=O)OCCCCCCCCCC)OC(=O)CN(C)C` [Compound 17] to `CCCCCCCCCCOC(=O)C(C)(C)CCCCCC(CCCCCC(C)(C)C(=O)OCCCCCCCCCC)OC(=O)CCCN(C)C` [Compound 18], the “Total photon count in vivo at 6 hours” value rises from 6.77E+05 to 1.14E+10.

First: CCCCCCCCOC(=O)C(C)(C)CCCCCC(CCCCCC(C)(C)C(=O)OCCCCCCCC)OC(=O)CCCN(C)C [Compound 19]
Second: CCCCCCCCCOC(=O)C(C)(C)CCCCCC(CCCCCC(C)(C)C(=O)OCCCCCCCCC)OC(=O)CCCN(C)C [Compound 20]
The “Total photon count in vivo at 6 hours” value of the first is lower: 3.20E+09 for the first, 2.40E+10 for the second.

Going from `CCCCCCCC#CCOC(=O)C(C)(C)CCCCCC(CCCCCC(C)(C)C(=O)OCC#CCCCCCCC)OC(=O)CCCN(C)C` [Compound 23] to `CCCCCCC#CCOC(=O)C(C)(C)CCCCCC(CCCCCC(C)(C)C(=O)OCCCCCCCCC)OC(=O)CCCN(C)C` (centres unmarked) [Compound 42], the “Total photon count in vivo at 6 hours” value falls from 1.43E+10 to 5.32E+09.

Compared with `CCCCC#CCCCCOC(=O)C(C)(C)CCCCCC(CCCCCC(C)(C)C(=O)OCCCCC#CCCCC)OC(=O)CCCN(C)C` [Compound 25], `CCCCCCCCCOC(=O)C(C)(C)CCCCCC(CCCCCC(C)(C)C(=O)OCCCCCCCCC)OC(=O)CCCCCN(C)C` [Compound 32] is higher in “Total photon count in vivo at 6 hours” value: 1.89E+08 for the first, 7.30E+09 for the second.

Compared with `CCCCCC/C=C\CCOC(=O)C(C)(C)CCCCCC(CCCCCC(C)(C)C(=O)OCC/C=C\CCCCCC)OC(=O)CCCN(C)C` [Compound 27], `CCCCCCCCCOC(=O)C(C)(C)CCCCCC(CCCCCC(C)(C)C(=O)SCCCCCCCCC)OC(=O)CCCN(C)C` (centres unmarked) [Compound 41] is lower in “Total photon count in vivo at 6 hours” value: 2.20E+10 for the first, 2.19E+10 for the second.

Compared with `CCCCCCCCCCSC(=O)C(C)(C)CCCCCC(CCCCCC(C)(C)C(=O)SCCCCCCCCCC)OC(=O)CCN(C)C` [Compound 33], `CCCCCCCCCCSC(=O)C(C)(C)CCCCCC(CCCCCC(C)(C)C(=O)SCCCCCCCCCC)OC(=O)CCCN(C)C` [Compound 34] is higher in “Total photon count in vivo at 6 hours” value: 2.12E+08 for the first, 1.26E+10 for the second.

First: CCCCCCCCCSC(=O)C(C)(C)CCCCCC(CCCCCC(C)(C)C(=O)SCCCCCCCCC)OC(=O)CCCN(C)C [Compound 37]
Second: CCCCCCCCCCSC(=O)C(C)(C)CCCCCC(CCCCCC(C)(C)C(=O)OCCCCCCCCC)OC(=O)CCCN(C)C (centres unmarked) [Compound 40]
The “Total photon count in vivo at 6 hours” value of the first is higher: 7.88E+09 for the first, 4.22E+09 for the second.

Compared with `CCCCCCCCCCOC(=O)C(C)(C)CCCCCC(CCCCCC(C)(C)C(=O)OCCCCCCCCCC)OC(=O)CCN1CCOCC1` [Compound 90], `CCCCCCCCCCOC(=O)C(C)(C)CCCCCC(CCCCCC(C)(C)C(=O)OCCCCCCCCCC)OC(=O)CN1CCOCC1` [Compound 91] is lower in “Total photon count in vivo at 6 hours” value: 1.04E+07 for the first, 1.29E+06 for the second.

Going from `CCCCCCCCCCOC(=O)C(C)(C)CCCCCC(CCCCCC(C)(C)C(=O)OCCCCCCCCCC)OC(=O)CCN1CCCC1` [Compound 92] to `CCCCCCCCCOC(=O)C(C)(C)CCCCCC(CCCCCC(C)(C)C(=O)OCCCCCCCCC)OC(=O)C1CCN(C)CC1` [Compound 102], the “Total photon count in vivo at 6 hours” value rises from 2.13E+09 to 2.03E+10.

Going from `CCCCCCC/C=C\COC(=O)CC(C)(C)CCCCC(CCCCC(C)(C)CC(=O)OCC(CCCCC)CCCCCCC)OC(=O)CCCN(C)C` (centres unmarked) [Compound 98] to `CCCCCCCCCOC(=O)C(C)(C)CCCCCC(CCCCCC(C)(C)C(=O)OCCCCCCCCC)OC(=O)C1CCN(C(C)C)CC1` [Compound 103], the “Total photon count in vivo at 6 hours” value falls from 2.12E+10 to 5.69E+09.

Compared with `CCCCCCCCOC(=O)C(C)(C)CCCCCC(CCCCCC(C)(C)C(=O)OCCCCCCCC)OC(=O)C1CCN(C)CC1` [Compound 100], `CCCCCCCCOC(=O)C(C)(C)CCCCCC(CCCCCC(C)(C)C(=O)OCCCCCCCC)OC(=O)C1CCN(C(C)C)CC1` [Compound 101] is lower in “Total photon count in vivo at 6 hours” value: 1.18E+10 for the first, 5.19E+09 for the second.

First: CCCCCCCCCCSC(=O)C(C)(C)CCCCCC(CCCCCC(C)(C)C(=O)SCCCCCCCCCC)OC(=O)C1CCN(C)CC1 [Compound 104]
Second: CCCCCCCCCSC(=O)C(C)(C)CCCCCC(CCCCCC(C)(C)C(=O)SCCCCCCCCC)OC(=O)C1CCN(C)CC1 [Compound 106]
The “Total photon count in vivo at 6 hours” value of the first is higher: 2.61E+10 for the first, 1.85E+10 for the second.

Compared with `CCCCCCCCCCSC(=O)C(C)(C)CCCCCC(CCCCCC(C)(C)C(=O)SCCCCCCCCCC)OC(=O)C1CCN(C(C)C)CC1` [Compound 105], `CCCCCCCCCSC(=O)C(C)(C)CCCCCC(CCCCCC(C)(C)C(=O)SCCCCCCCCC)OC(=O)C1CCN(C(C)C)CC1` [Compound 107] is higher in “Total photon count in vivo at 6 hours” value: 3.33E+09 for the first, 1.36E+10 for the second.

In the case of `CCCCCCC/C=C\COC(=O)C(C)(C)CCCCCC(CCCCCC(C)(C)C(=O)OC/C=C\CCCCCCC)OC(=O)CCCN(C)C` [Compound 26], the “Total photon count in vivo at 6 hours” value is reported as greater than 4.00E+10.
With `CCCCCCCCCOC(=O)C(C)(C)CCCCCC(CCCCCC(C)(C)C(=O)OCC(CCCCC)CCCCCCC)OC(=O)CCCN(C)C` (centres unmarked) [Compound 46] the “Total photon count in vivo at 6 hours” value was greater than 4.00E+10.
